Data: ChEMBL document CHEMBL1131290, “Studies of structure-activity relationship of nitroxide free radicals and their precursors as modifiers against oxidative damage” (1998)

Assays:
[1] = Mean surviving fraction of V79 cells following a 1-h exposure to H2O2.; type: functional, Cricetulus griseus
[2] = system: V79; details: Cricetulus griseus
[3] = Mean surviving fraction of V79 cells following a 12-Gy dose of radiation.; type: functional, Cricetulus griseus
[4] = system: V79; details: Cricetulus griseus; remark: listed apart in the source
[5] = Compound was evaluated for mean surviving fraction of Chinese hamster V79 cells following a 12-Gy dose of radiation.; type: functional, Cricetulus griseus
[6] = Compound was evaluated for mean surviving fraction of Chinese hamster V79 cells following a 1-h exposure to H2O2.; type: functional, Cricetulus griseus

Compound	H2O2 prot [1]	Radiation prot [3]	further results
CC1(C)C=C(C(=O)O)C(C)(C)N1[O]	1		
CCCCN(CCCC)CC1=CC(C)(C)N([O])C1(C)C			H2O2 prot [2]: 3.2
CC1(C)CCC=[N+]1[O-]	0.9	0.93	
CC1(C)CC(CN)C(C)(C)N1[O] (stereo not given)	0.7	13.7	
CC1(C)C=C(C=O)C(C)(C)N1	0.9	0.07	
CC1(C)CC(=O)C(C)(C)N1[O]			Radiation prot [4]: 10.2; H2O2 prot [2]: 0.9
COC(=O)C1=CC(C)(C)N([O])C1(C)C			Radiation prot [4]: 0.94; H2O2 prot [2]: 1.5
CC1(C)CCC(C)(C)N1O			Radiation prot [5]: 0.7; H2O2 prot [6]: 2.3
CC1(C)CC(N)C(C)(C)N1[O] (stereo not given)	1.1	12.9	
CC1(C)C=C(CN2Cc3ccccc3C2)C(C)(C)N1[O]			Radiation prot [4]: 3.9
CC1(C)CC(=O)CC(C)(C)N1	0.5	1.1	
CC(C)(C)NCC1=CC(C)(C)N(O)C1(C)C	2.1	1.2	
CC1(C)C=C(CNCc2ccccc2)C(C)(C)N1[O]			Radiation prot [4]: 5.2; H2O2 prot [2]: 2
CC1(C)CCC(C)(C)N1[O]	0.9	4.6	
CC1(C)CC(N2C(=O)c3ccccc3C2=O)CC(C)(C)N1	0.8	1.7	
CCOCC1=CC(C)(C)N([O])C1(C)C			H2O2 prot [2]: 1.3
CC1=[N+]([O-])C(C)(C)CC1	0.8	1.1	
CC1(C)C=C(CO)C(C)(C)N1[O]			Radiation prot [4]: 2.6; H2O2 prot [2]: 1.8
CC1(C)CCCC(C)(C)N1O	1.5	0.68	
CC1(C)CC(=O)C(C)(C)N1O	1.1	1	
CC1(C)CC(N)CC(C)(C)N1[O] [TEMPAMINE]	2.8	18.5	
CC1(C)C=C(C(=O)NCCCN)C(C)(C)N1O	1		
CC1(C)C=C(CN2CCCCC2)C(C)(C)N1		0.95	

Compound	H2O2 prot [1]	Radiation prot [3]	further results
CC1(C)C=C(C(=O)NCCCN)C(C)(C)N1[O]			H2O2 prot [2]: 1.1
CC1(C)CC(N)CC(C)(C)N1O	1	1.1	
CC1(C)C=C(CN2CCCC2)C(C)(C)N1[O]			Radiation prot [4]: 21.4
CC1(C)C=C(C=O)C(C)(C)N1O	2.7	0.13	
CC1(C)CC(O)CC(C)(C)N1[O] [TEMPOL]	2.5	5.1	
CC1(C)C=C(CNC23CC4CC(CC(C4)C2)C3)C(C)(C)N1O	2.5	1.8	
CC1(C)C=C(CNC2CCCCC2)C(C)(C)N1[O]			Radiation prot [4]: 4.4
CN1C(C)(C)C=C(C=O)C1(C)C		0.6	
CC1(C)C=C(C(=O)NCCCN2C(=O)c3ccccc3C2=O)C(C)(C)N1O	2.2	1.3	
CN(C)CC1=CC(C)(C)NC1(C)C		0.95	
CN(C)CC1=CC(C)(C)N([O])C1(C)C			Radiation prot [4]: 13.9; H2O2 prot [2]: 2.1
CCCC[N+](CCCC)(CCCC)CC1=CC(C)(C)N([O])C1(C)C			Radiation prot [4]: 0.69; H2O2 prot [2]: 1.1
CC(=O)C1=CC(C)(C)NC1(C)C	1.3	0.63	
CC1(C)C=C(CCNC(=N)N)C(C)(C)N1[O]			Radiation prot [4]: 1
CC1(C)CC(CO)C(C)(C)N1[O] (stereo not given)			Radiation prot [4]: 4.7; H2O2 prot [2]: 1.1
CC1(C)CC(O)CC(C)(C)N1	0.4	0.9	
CC1(C)C=C(C(=O)NCCCO)C(C)(C)N1[O]			H2O2 prot [2]: 1.1
CC1(C)CC(O)CC(C)(C)N1O [TEMPOL HYDROXYLAMINE]		1.05	
CC1(C)C=C(C(N)=O)C(C)(C)N1[O]			Radiation prot [4]: 10.7; H2O2 prot [2]: 1
CC1(C)C=C(C(=O)NCCCN2C(=O)c3ccccc3C2=O)C(C)(C)N1	1.1	1.9	
CC1(C)C=C(CO)C(C)(C)N1O	3.1	0.92	
CCCCN(CCCC)C1CC(C)(C)N([O])C(C)(C)C1			H2O2 prot [2]: 2.9
CC1(C)C=C(C[P+](c2ccccc2)(c2ccccc2)c2ccccc2)C(C)(C)N1[O]			Radiation prot [4]: 0.72

Compound	H2O2 prot [1]	Radiation prot [3]	further results
CC1(C)C=C(CNC23CC4CC(CC(C4)C2)C3)CC(C)(C)N1O	2.1		
CCOC1CC(C)(C)N(O)C(C)(C)C1	1.6		
CC1(C)CC(=O)CC(C)(C)N1O		0.68	
CC[N+](CC)(CC)CC1=CC(C)(C)N([O])C1(C)C			Radiation prot [4]: 1.2
CC1(C)C=C(C=O)C(C)(C)N1[O]			Radiation prot [4]: 2.7; H2O2 prot [2]: 1.3
CCOC1CC(C)(C)N([O])C(C)(C)C1			H2O2 prot [2]: 1.9
CN(CC1=CC(C)(C)N([O])C1(C)C)C12CC3CC(CC(C3)C1)C2			H2O2 prot [2]: 3.3
CC(C)(C)NCC1=CC(C)(C)N([O])C1(C)C			Radiation prot [4]: 19.3; H2O2 prot [2]: 2
CC1(C)C=C(CN2CCCC2)C(C)(C)N1	1	0.34	
CC1(C)CCCC(C)(C)N1[O]	3.5	4.2	
CC1(C)C=C(C(=O)NCC(=O)O)C(C)(C)N1[O]			Radiation prot [4]: 0.98; H2O2 prot [2]: 0.9
CC1(C)C=C(CN2CCCC2)C(C)(C)N1O		28.3	
CC1=[N+]([O-])C(C)CC1 (stereo not given)	1.1	0.91	
CCN(CC)CC1=CC(C)(C)N([O])C1(C)C			Radiation prot [4]: 17.2
CC(=O)NC1CC(C)(C)N(O)C(C)(C)C1	1.8	0.85	
CC1(C)C=C(C(=O)NCCCN)C(C)(C)N1		0.52	
CC1(C)C=C(CC[Se]C(=N)N)C(C)(C)[NH+]1[O-] (stereo not given)	1.3		
CC(=O)C1=CC(C)(C)N([O])C1(C)C		4.8	
CC1(C)C=C(CO)C(C)(C)N1	0.9	1.5	
CC1(C)CC(C(=O)O)C(C)(C)N1[O] (stereo not given)	1		
CC1(C)C=C(C(=O)NCCO)C(C)(C)N1[O]			H2O2 prot [2]: 1.2
CC1(C)CC(=O)CC(C)(C)N1[O]	1.1	7.1	
CC1(C)C=C(CNC23CC4CC(CC(C4)C2)C3)C(C)(C)N1	1.9	1.4	

Compound	H2O2 prot [1]	Radiation prot [3]	further results
CC1(C)CC(NS(C)(=O)=O)CC(C)(C)N1O		0.77	
CCCCNCC1=CC(C)(C)N([O])C1(C)C			Radiation prot [4]: 3.96; H2O2 prot [2]: 2.5
CC1(C)C=C(CNC23CC4CC(CC(C4)C2)C3)C(C)(C)N1[O]			H2O2 prot [2]: 3.3
CC1(C)C=C(CCSC(=N)N)C(C)(C)N1[O]			Radiation prot [4]: 7.5; H2O2 prot [2]: 2.2
CC1(C)C=C(CN2C(=O)c3ccccc3C2=O)C(C)(C)N1O	3.3	0.49	
CN(C)CC1=CC(C)(C)N(O)C1(C)C		16	
CN(CC1=CC(C)(C)N([O])C1(C)C)Cc1ccccc1			H2O2 prot [2]: 2
CN(CC1=CC(C)(C)N(O)C1(C)C)C12CC3CC(CC(C3)C1)C2	2.6		
CC1(C)CC(C(=O)NCCCN2C(=O)c3ccccc3C2=O)C(C)(C)N1O (stereo not given)		1.26	
CC1(C)C=C(NC(N)=O)C(C)(C)N1[O]			H2O2 prot [2]: 1.2
CC1(C)CC(N2C(=O)c3ccccc3C2=O)CC(C)(C)N1O	1.5		
CC1(C)C=C(CN2CCCCC2)C(C)(C)N1O		30	
CC(=O)C1=CC(C)(C)N(O)C1(C)C	2.7	0.15	
CC1(C)CC(C(N)=O)C(C)(C)N1[O] (stereo not given)	1.7	11.2	
CC1(C)CC(NC2CC(C)(C)N(O)C(C)(C)C2)CC(C)(C)N1O.Cl	1.9	1.4	
CC1(C)C=C(CN2CCCCC2)C(C)(C)N1[O]			Radiation prot [4]: 19.1
CN(C)CCCNC(=O)C1=CC(C)(C)N([O])C1(C)C			Radiation prot [4]: 15
CCN(CC)CC1=CC(C)(C)N(O)C1(C)C		0.96	
CC1(C)C=C(C=O)CC(C)(C)N1O		1.5	
CCOCC1=CC(C)(C)N(O)C1(C)C	3.2		
CC1(C)CC(O)C(C)(C)N1[O] (stereo not given)			Radiation prot [4]: 2.9; H2O2 prot [2]: 1.4
CC1(C)C=C(C=O)CC(C)(C)N1[O]			Radiation prot [4]: 6.1; H2O2 prot [2]: 0.8
CC1(C)C=C(C=O)CC(C)(C)N1		0.4	
